# Patent US20260131007A1, “Mannose 6-Phosphate Receptor Binding Compounds for the Degradation of Extracellular Proteins” (Avilar Therapeutics, Inc., priority 2023, published 2026)
# Bridge positions count the residues as written; N and C are the ends. Square brackets hold non-standard residues; d marks the D form.
# B1: Compound 11 (peptide)
# peptide: cyclo(ELVWCT[dP]PDCAWHLG)
# modifications: disulfide 5-10; not fully specified (residue 8); also: one triazole-linked A77 group on the PEG8 linker
# B2: Compound 9 (peptide)
# peptide: cyclo(ELVWCT[dP]PDCAWHLG)
# modifications: disulfide 5-10; not fully specified (residue 8); also: branched PEG linker structure not given here
# B3: Compound 10 (peptide)
# peptide: cyclo(ELVWCT[dP]PDCAWHLG)
# modifications: disulfide 5-10; not fully specified (residue 8); also: trivalent linker structure not given here
# B4: Compound 6 (peptide)
# peptide: cyclo(ELVWCT[dP]PDCAWHLG)
# modifications: disulfide 5-10; not fully specified (residue 8); also: one triazole-linked (2-(6-(but-3-yn-1-yloxy)-3,4,5-trihydroxytetrahydro-2H-pyran-2-yl)ethyl)phosphonic acid group on the PEG8 linker
# B5: Compound 1 (peptide)
# peptide: cyclo(ELVWCT[dP]PDCAWHLG)
# modifications: disulfide 5-10; not fully specified (residue 8); also: trivalent linker structure not given here
# Target: T1, Insulin-like growth factor 2 receptor (IGF-1IR, cation-independent mannose-6-phosphate receptor, CI-MPR; hIGF-IIR) (Homo sapiens, UniProt P11717)
# T1 construct: purchased R&D Systems 6418-GR
# Experiment: HTRF-based ternary complex inhibition assay for relative affinity of IGF-IIR ligands
# Conditions: competition with MTAC probe for His-tagged hIGF-IIR; biotinylated IgG1; apparent binding affinity; read-out: TCF INH (HTRF) IC50
# Procedure: The apparent binding affinity of Insulin-like growth factor 2 receptor (IGF-1IR, also called the cation- independent mannose-6-phosphate receptor (CI-MPR)) ligands was determined indirectly by competing with a probe molecule for binding to IGF-1IR. The probe is a Mannose 6-Phosphate Ligand (“Ligand”) and binds to hIGF-IIR and IgG1 to form a hIGF-IIR: Ligand: IgG1 ternary complex. The ternary complex was detected by an HTRF readout. The ternary complex is disrupted in the presence of IGF-1IR ligand, resulting in decreased HTRF signal. IGF-1IR ligands of 3-fold dilution series were prepared from 10 mM DMSO stock on a 384-well LDV microplate using Echo Acoustic Liquid Handler (Beckman Coulter Life Sciences) followed by transfer of 600 nL of the solutions to an OptiPlate 384-well microplate (PerkinElmer, 6007290). Manose-6-phosphate (M6P; J&K, 530168) and glucose-6-phosphate (G6P; Sigma, V900924) were prepared from 100 mM stock in the same manner and were used as positive and negative controls, respectively. The wells used as 0% and 100% inhibition controls were prepared by adding 600 nL DMSO. 20 nL of 50 μM MTAC probe was transferred to all wells except the wells used as 100% Inhibition control. 9.4 μL working solution containing 65.1 nM of Biotinylated-IgG1 (Viva 20211108) and 65.1 nM of His-tagged hIGF-IIR (R&D Systems, 6418-GR) in assay buffer 50 mM Tris, pH 7.5, 150 mM NaCl, 50 mM CaCl2, 0.01% Tween-20 was transferred to all wells. The plate was incubated at room temperature for 60 min with gentle shaking to allow molecular interaction to reach equilibration. Following this, 10 μL of HTRF detection solution containing 15 nM Streptavidin-d2 (PerkinElmer, 610SADLA) and 0.7 nM MAb Anti 6HIS—Tb cryptate (PerkinElmer, 61HISTLA) in PPI Terbium detection buffer (PerkinElmer, 61DB10RDF) was added. The assay plate was incubated at room temperature with gentle shaking for 60 min to allow HTRF signal to develop. The plate was gently spun on a centrifuge then placed on a EnVision plate reader (Perkin Elmer, EnVision 2104) to read fluorescence ratio of 665 nm/615 nm. Percent inhibitions were calculated with this equation: % I=100* [1−(X−100% I/(0% I−100% I)] where X is the […] in the presence of IGF-1IR ligand. The apparent binding affinity (presented as IC50) was calculated by fitting the % inhibition data with a non-linear 4-parameter inhibition equation using GraphPad Prism (GraphPad Software, LLC; version 9.4.1).
row,Molecule,IC50
1,"C#CCCOC1O[C@H](CCS(=O)(=O)Nc2ncccn2)[C@@H](O)[C@H](O)[C@@H]1O (stereo partly drawn) [Compound A14, 2-((2R,3S,4S,5S)-6-(but-3-yn-1-yloxy)-3,4,5-trihydroxytetrahydro-2H-pyran-2-yl)-N-(pyrimidin-2-yl)ethane-1-sulfonamide]",100 to 300 µM
2,"O=P(O)(CC[C@H]1OC(O)[C@@H](O)[C@@H](O)[C@@H]1O)Cc1c(F)cccc1F (stereo partly drawn) [Compound A60, (2,6-difluorobenzyl) (2-((2R,3S,4S,5S)-3,4,5,6-tetrahydroxytetrahydro-2H-pyran-2-yl)ethyl)phosphinic acid]",10 to 100 µM
3,"O=P(O)(O)C1CC1[C@H]1O[C@H](Oc2ccccc2)[C@@H](O)[C@@H](O)[C@@H]1O (stereo partly drawn) [Compound A43, [2-[(2R,3S,4S,5S,6R)-3,4,5-trihydroxy-6-phenoxy-tetrahydropyran-2-yl]cyclopropyl]phosphonic acid]",10 to 100 µM
4,"O=P(O)(O)CC[C@H]1O[C@H](Oc2ccc3c(c2)Cc2cc(O)ccc2-3)[C@@H](O)[C@@H](O)[C@@H]1O [Compound A22, (2-((2R,3S,4S,5S,6R)-3,4,5-trihydroxy-6-((7-hydroxy-9H-fluoren-2-yl)oxy)tetrahydro-2H-pyran-2-yl)ethyl)phosphonic acid]",< 10 µM
5,"O=P(O)(O)CC[C@H]1OC(CCc2ccccc2)[C@@H](O)[C@@H](O)[C@@H]1O (stereo partly drawn) [Compound A13, (2-((2R,3S,4R,5S)-3,4,5-trihydroxy-6-phenethyltetrahydro-2H-pyran-2-yl)ethyl)phosphonic acid]",< 10 µM
6,"CO[C@H]1O[C@H](CCS(=O)(=O)Nc2ncccn2)[C@@H](O)[C@H](O)[C@@H]1O [Compound A9, N-(pyrimidin-2-yl)-2-((2R,3S,4S,5S,6S)-3,4,5-trihydroxy-6-methoxytetrahydro-2H-pyran-2-yl)ethane-1-sulfonamide]",100 to 300 µM

# Target: T2, hIGF-IIR and IgG1 (ternary complex) (Homo sapiens, UniProt P01857+P11717)
# T2 construct: purchased R&D Systems 6418-GR
# Experiment: HTRF-based ternary complex formation assay for hIGF-IIR targeting Extracellular Protein Degraders
# Assay type: binding
# Conditions: not given
# Excerpt: The ternary complex formation assay is designed to identify and determine the potency of Extracellular Protein Degrader molecules which can induce the formation of ternary complex between the Extracellular Protein Degrader hIGF-IIR. Titrating Extracellular Protein Degrader to fixed amount of hIGF-IIR results in a bell-shaped curve (except molecules whose binary complex affinity between Extracellular Protein Degrader and hIGF-IIR). The peak mean represents Extracellular Protein Degrader concentration at which maximum ternary complex is formed. Too much or too little Extracellular Protein Degrader leads to decreased ternary complex formation due to formation of binary complex (Hook effect). Dose response of Extracellular Protein Degrader compounds (16-point 3-fold dilution series, 100X) were prepared by Echo Acoustic Liquid Handler (Beckman Coulter Life Sciences) using 384-well LDV microplate. Then 200 nL of the solutions were transferred to an OptiPlate 384-well microplate (PerkinElmer, 6007290). To the assay plate, 10 μL working solution containing 60 nM of Biotinylated-IgG1 (Viva 20211108) and 60 nM of His-tagged hIGF-IIR (R&D Systems, 6418-GR) in assay buffer 50 mM Tris, pH 7.5, 150 mM NaCl, 50 mM CaCl2, 0.01% Tween-20 were added. The plate was incubated for 60 min at room temperature with gentle shaking to allow molecular interaction to reach equilibration. Following this, 10 μL of HTRF detection solution containing 15 nM Streptavidin-d2 (PerkinElmer, 610SADLA) and 0.7 nM MAb Anti 6HIS—Tb cryptate (PerkinElmer, 61HISTLA) in PPI Terbium detection buffer (PerkinElmer, 61DB10RDF) were added. The assay plate was incubated at room temperature with gentle shaking for 60 min to allow HTRF signal to develop. The plate was gently spun on a centrifuge then placed on an EnVision plate reader (Perkin Elmer, EnVision 2104) to read fluorescence ratio of 665 nm/615 nm. Data were analyzed by fitting with Bell-shaped non-linear regression model using GraphPad Prism (GraphPad Software, LLC; version 9.4.1). Mean fluorescence intensity is graphed versus compound concentration and the EC50 for TCF is calculated from the inflection point of the curve (GraphPad).
row,Molecule,EC50
1,COc1ccc(OC2O[C@H](CCP(=O)(O)Cc3cccc(OCc4cn(CCOCCNC(=O)CCOCC(COCCC(=O)NCCOCCn5cc(COc6cccc(CP(=O)(O)CC[C@@H]7OC(Oc8ccc(OC)cc8)[C@H](O)[C@H](O)[C@H]7O)c6)nn5)(COCCC(=O)NCCOCCn5cc(COc6cccc(CP(=O)(O)CC[C@@H]7OC(Oc8ccc(OC)cc8)[C@H](O)[C@H](O)[C@H]7O)c6)nn5)NC(=O)COCCOCCOCC(=O)N[C@H]5C[C@H]6C(=O)N[C@@H](CC(=O)O)C(=O)N[C@H]7CSSC[C@H](NC(=O)[C@H](Cc8c[nH]c9ccccc89)NC(=O)[C@H](C(C)C)NC(=O)[C@H](CC(C)C)NC(=O)[C@H](CCC(=O)O)NC(=O)CNC(=O)[C@H](CC(C)C)NC(=O)[C@H](Cc8cnc[nH]8)NC(=O)[C@H](Cc8c[nH]c9ccccc89)NC(=O)[C@H](C)NC7=O)C(=O)N[C@@H]([C@@H](C)O)C(=O)N7CCC[C@@H]7C(=O)N6C5)nn4)c3)[C@@H](O)[C@H](O)[C@@H]2O)cc1 (some centres unmarked) [Compound 1],< 0.05 µM
2,COc1ccc(OC2O[C@H](CCP(=O)(O)Cc3cn(CCOCCNC(=O)CCOCC(COCCC(=O)NCCOCCn4cc(CP(=O)(O)CC[C@@H]5OC(Oc6ccc(OC)cc6)[C@H](O)[C@H](O)[C@H]5O)nn4)(COCCC(=O)NCCOCCn4cc(CP(=O)(O)CC[C@H]5OC(Oc6ccc(OC)cc6)[C@@H](O)[C@@H](O)[C@@H]5O)nn4)NC(=O)COCCOCCOCC(=O)N[C@H]4C[C@H]5C(=O)N[C@@H](CC(=O)O)C(=O)N[C@H]6CSSC[C@H](NC(=O)[C@H](Cc7c[nH]c8ccccc78)NC(=O)[C@H](C(C)C)NC(=O)[C@H](CC(C)C)NC(=O)[C@H](CCC(=O)O)NC(=O)CNC(=O)[C@H](CC(C)C)NC(=O)[C@H](Cc7c[nH]cn7)NC(=O)[C@H](Cc7c[nH]c8ccccc78)NC(=O)[C@H](C)NC6=O)C(=O)N[C@@H]([C@@H](C)O)C(=O)N6CCC[C@@H]6C(=O)N5C4)nn3)[C@@H](O)[C@H](O)[C@@H]2O)cc1 (some centres unmarked) [Compound 10],< 0.05 µM

# Same assay, conditions: biotinylated IgG1 and His-tagged hIGF-IIR, 60 nM each; read-out: TCF (HTRF) EC50
row,Molecule,EC50
1,COc1ccc(OC2O[C@H](CCP(=O)(O)Cc3cn(CCOCCOCCOCCOCCOCCOCCOCCOCCC(=O)N[C@H]4C[C@H]5C(=O)N[C@@H](CC(=O)O)C(=O)N[C@H]6CSSC[C@H](NC(=O)[C@H](Cc7c[nH]c8ccccc78)NC(=O)[C@@H](C(C)C)NC(=O)[C@@H](CC(C)C)NC(=O)[C@H](CCC(=O)O)NC(=O)CNC(=O)[C@@H](CC(C)C)NC(=O)[C@H](Cc7cnc[nH]7)NC(=O)[C@H](Cc7c[nH]c8ccccc78)NC(=O)[C@H](C)NC6=O)C(=O)N[C@H]([C@@H](C)O)C(=O)N6CCC[C@@H]6C(=O)N5C4)nn3)[C@@H](O)[C@H](O)[C@@H]2O)cc1 (some centres unmarked) [Compound 11],< 0.05 µM

# Target: Biotinylated-IgG1 (Viva 20211108)
# Experiment: HTRF ternary complex formation: compound titrated into 60 nM biotinylated IgG1 + 60 nM His-tagged hIGF-IIR (R&D 6418-GR); grade read by the legend '<50 nM = ***'
# Conditions: not given
row,Molecule,EC50
1,B1,< 0.05 µM
2,B2,< 0.05 µM
3,B3,< 0.05 µM
4,B4,< 0.05 µM
5,B5,< 0.05 µM
